{"source": "paper PMC6271856", "about": "“Leishmanicidal Evaluation of Tetrahydroprotoberberine and Spirocyclic Erythrina-Alkaloids” (Molecules, 2014)", "key": {"[1]": {"system": "Leishmania amazonensis promastigote forms", "assay": "Leishmanicidal MTT assay on promastigote forms", "assay_type": "cell-based", "details": "for IC50: Leishmania amazonensis, read-out: L. amazonensis IC50"}, "[2]": {"assay": "Macrophages in vitro cytotoxic assay (MTT)", "details": "mouse, J774A.1 macrophage cells"}, "[3]": {"assay": "in vitro", "details": "mouse"}, "[4]": {"details": "promastigote forms, 48 h treatment, MTT"}}, "note": "Read-outs that look alike come from different tables or passages of the source."}
{"smiles": "C[C@@H]1[C@H](O)[C@@H](C)/C=C/C=C/C=C/C=C/C=C/C=C/C=C/[C@H](O[C@@H]2O[C@H](C)[C@@H](O)[C@H](N)[C@@H]2O)C[C@@H]2O[C@](O)(C[C@@H](O)C[C@@H](O)[C@H](O)CC[C@@H](O)C[C@@H](O)CC(=O)O[C@H]1C)C[C@H](O)[C@H]2C(=O)O", "note": "[Amphotericin B, reference compound]", "values": [{"measurement": "IC50", "setting": "[1]; [4]", "value": 0.2, "unit": "µg/mL"}]}
{"smiles": "COc1ccc2c(c1O)[C@@H]1Cc3cc4c(cc3CN1CC2)OCO4", "note": "[Compound 1]", "values": [{"measurement": "SI (Selectivity Index = CC50 drug/IC50 drug)", "setting": "[1]; CC50 J774 macrophages / IC50 L. amazonensis promastigotes", "value": 284.55}, {"measurement": "IC50", "setting": "[1]; [4]", "value": 0.18, "unit": "µg/mL"}, {"measurement": "CC50 at 48 h", "setting": "[2]", "value": 51.2, "unit": "µg/mL"}]}
{"smiles": "COc1cc2c(cc1OC)CN1CCc3ccc(OC)c(O)c3[C@@H]1C2", "note": "[Compound 2]", "values": [{"measurement": "IC50", "setting": "[1]; [4]", "value": "> 1000", "unit": "µg/mL"}, {"measurement": "CC50 at 48 h", "setting": "[2]", "value": 96.6, "unit": "µg/mL"}]}
{"smiles": "CO[C@H]1C=CC2=CCN3CCc4cc5c(cc4[C@]23C1)OCO5", "note": "[Compound 3, erythraline]", "values": [{"measurement": "SI (Selectivity Index = CC50 drug/IC50 drug)", "setting": "[1]", "value": 1.06}, {"measurement": "IC50", "setting": "[1]; 48 h", "value": 65.3, "unit": "µg/mL"}, {"measurement": "CC50", "setting": "[3]", "value": 69.3, "unit": "µg/mL"}]}
{"smiles": "COC1C=CC2=CC(=O)N3CCc4cc5c(cc4C23C1)OCO5", "note": "(stereo not drawn) [Compound 4, 8-oxoerythraline]", "values": [{"measurement": "IC50", "setting": "[1]; [4]", "value": "> 1000", "unit": "µg/mL"}, {"measurement": "CC50", "setting": "[3]", "value": "> 1000", "unit": "µg/mL"}]}
{"smiles": "COC1C=CC2=CC(=O)N3C=Cc4cc5c(cc4C23C1)OCO5", "note": "(stereo not drawn) [Compound 6, Crystamidine]", "values": [{"measurement": "SI (Selectivity Index = CC50 drug/IC50 drug)", "setting": "[1]", "value": 0.82}, {"measurement": "IC50", "setting": "[1]; [4]", "value": 71.5, "unit": "µg/mL"}, {"measurement": "CC50", "setting": "[3]", "value": 59, "unit": "µg/mL"}]}
{"smiles": "COC1C=CC2=CCN3CC(O)c4cc5c(cc4C23C1)OCO5", "note": "(stereo not drawn) [Compound 7, Erythrinine]", "values": [{"measurement": "SI (Selectivity Index = CC50 drug/IC50 drug)", "setting": "[1]", "value": 1.52}, {"measurement": "IC50", "setting": "[1]; 48 h", "value": 39.5, "unit": "µg/mL"}, {"measurement": "CC50", "setting": "[3]", "value": 60, "unit": "µg/mL"}]}
{"smiles": "COc1cc2c(cc1O)[C@]13C[C@@H](OC)C=CC1=CCN3CC2", "note": "[Compound 8, Erysovine]", "values": [{"measurement": "IC50", "setting": "[1]; 48 h", "value": "> 1000", "unit": "µg/mL"}, {"measurement": "CC50", "setting": "[3]", "value": "> 1000", "unit": "µg/mL"}]}
{"smiles": "COc1cc2c(cc1OC)C13CC(OC)C(=O)C=C1CCN3CC2", "note": "(stereo not drawn) [Compound 9, Erythratidinone]", "values": [{"measurement": "IC50", "setting": "[1]; 48 h", "value": "> 1000", "unit": "µg/mL"}, {"measurement": "CC50", "setting": "[3]", "value": "> 1000", "unit": "µg/mL"}]}
